Test results from article doi:10.1101/2024.05.19.594723v1 (biorxiv, 2024).
Where a name gives a salt, the structure may show the parent alone. Read-outs that look alike come from different tables or passages of the source.

Legend:
[1] = test system: Sindbis virus SINV; assay: microbe, parasite or virus in culture; details: BHK-21, read-out: SINV replicon assay IC50 (μM)
[2] = molecular target: T1, CHIKV nsP1 (Chikungunya virus strain S27-African prototype, UniProt Q8JUX6); assay: biochemical
T1 sequence (Q8JUX6 1-535): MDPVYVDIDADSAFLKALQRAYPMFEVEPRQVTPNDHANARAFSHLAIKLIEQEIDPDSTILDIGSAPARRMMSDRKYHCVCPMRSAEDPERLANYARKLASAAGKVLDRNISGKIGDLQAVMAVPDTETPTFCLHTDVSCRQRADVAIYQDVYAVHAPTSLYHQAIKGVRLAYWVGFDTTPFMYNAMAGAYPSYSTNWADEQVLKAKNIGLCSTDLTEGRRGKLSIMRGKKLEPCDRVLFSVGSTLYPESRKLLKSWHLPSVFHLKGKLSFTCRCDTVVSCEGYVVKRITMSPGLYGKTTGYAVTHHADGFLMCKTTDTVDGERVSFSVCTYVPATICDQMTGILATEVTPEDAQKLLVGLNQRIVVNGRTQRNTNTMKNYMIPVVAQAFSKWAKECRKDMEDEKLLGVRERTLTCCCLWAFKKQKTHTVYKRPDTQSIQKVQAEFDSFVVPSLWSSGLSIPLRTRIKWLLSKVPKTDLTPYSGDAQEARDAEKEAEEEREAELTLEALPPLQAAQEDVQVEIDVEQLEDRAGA

[3] = test system: Chikungunya virus CHIKV; assay: microbe, parasite or virus in culture; details: read-out: Plaque reduction assay IC50 (nM)
[4] = in vitro; details: hamster, bhk-21 cells
[5] = in vitro; details: monkey, vero cells
[6] = molecular target: T1, CHIKV nsP1; assay type: binding

Row | SMILES | IC50 [1] | Kd [2] | IC50 [3] | CC50 at 24 h [4] | CC50 at 24 h [5] | Kd [6]
1 | COc1cc2c3cc1Oc1c(OC)c(OC)cc4c1[C@@H](Cc1cccc(c1)Oc1ccc(c(O)c1)C[C@@H]3N(C)CC2)N(C)CC4 [Berbamine Hydrochloride] | 1.94 ± 0.97 µM | 5.45 ± 0.77 µM | < 100 nM | 46 µM | > 25 µM | –
2 | Cc1ccc(C(=O)Nc2ccc(CN3CCN(C)CC3)c(C(F)(F)F)c2)cc1C#Cc1cnc2cccnn12 [Ponatinib] | > 1.25 µM | – | < 3.9 nM | 2.4 µM | 7.95 µM | ~3.83 µM
3 | CC1(C)CCC(CN2CCN(c3ccc(C(=O)NS(=O)(=O)c4ccc(NCC5CCOCC5)c([N+](=O)[O-])c4)c(Oc4cnc5[nH]ccc5c4)c3)CC2)=C(c2ccc(Cl)cc2)C1 [ABT199/Venetoclax] | 0.23 ± 0.04 µM | – | 3.46 ± 1.31 nM | > 2.5 µM | 5 µM | ~161 µM
